Key:
[1] = Tissue, plasma, rectal and GI content pharmacokinetics of tacrolimus, oral vs intra-cecal ingestible device (Example 10); parameters: species or system Yorkshire-Cross farm swine; conditions: in vivo
Description: (§1) No further randomization procedure was employed.
Animals in Group 1 received an ingestible device containing 0.8 mL of vehicle solution (8000 alcohol, 2000 HCO-60). Animals in Group 2 received orally […] liquid formulation of tacrolimus at 4 mg/0.8 mL per animal (Prograf: 5 mg/mL). Animals in Group 3 received intra-cecally an ingestible device containing tacrolimus at 1 mg in 0.8 mL per ingestible device. Animals in Group 4 received intra-cecally an ingestible device containing tacrolimus at 2 mg in 0.8 mL per ingestible device. Animals in Group 5 received intra-cecally an ingestible device containing tacrolimus at 4 mg in 0.8 mL per ingestible device. To control for potential confounding effects of the surgery, all groups fast on Day −11 at least 24 hr before being subjected to anesthesia followed by surgical placements of a cecal port by a veterinary surgeon at Day −10. All animals were fasted for at least 12 hr prior to dosing on Day 1. Animals were dosed via either intra-cecal dosing (IC) or oral dosing (PO) at Day 1 (between 6-8 p.m.). All animals resumed feeding at approximately 4 hours after dose (11-12 p.m. after dosing).
Animals in Group 1 (Vehicle Control) were administered a single intra-cecal ingestible device containing 0.8 mL Vehicle solution (80% alcohol, 20% castor oil (HCO-60) on Day 1. On Day −10 the animals were anesthetized, and a veterinary surgeon surgically placed an intra-cecal port in each animal. On Day 1, each animal was placed into a sling then a single intra-cecal ingestible device containing 0.8 mL vehicle solution (80% alcohol, 20% castor oil (HCO-60)) is introduced by the veterinary surgeon into the cecum via the cecal port in each animal. Following ingestible device placement, the animals were removed from the slings and placed back into their pens with water. All animals resumed feeding at approximately 4 hours after dose. […] A total of 60 samples were collected.
Approximately 200-400 mg of rectal content were collected, if available, with a fecal swab (Copan Diagnostics Nylon Flocked Dry Swabs, 502CS01). The fecal swab was pre-weighed and weighed after collection in the collection tube (Sterile Tube and Cap No Media, PFPM913S), and the sample weight was recorded. […]
For tissue necropsy, small intestine fluid and cecal fluid were collected separately from all the animals into two separate square plastic bottles, and stored at −20° C. The length and diameter of the cecum and the colon was measured from one animal in each group and recorded for reference. […] All samples were weighed, and the tissue sample weights were recorded. […] Around 3 grams of the total punched sample were collected into a pre-weighed 15-mL conical tube, and the tissue weight was recorded. […]

[2] = Pharmacokinetic study of oral vs intra-cecal tacrolimus: blood, rectal content, GI tissue and luminal content, tissue/plasma ratios (Example 13); parameters: species or system Yorkshire-Cross farm swine; conditions: female, Yorkshire-Cross, swine, in vivo, 0.09 mg/kg
From the text: as §1

## C=CC[C@@H]1/C=C(\C)C[C@H](C)C[C@H](OC)[C@H]2O[C@@](O)(C(=O)C(=O)N3CCCC[C@H]3C(=O)O[C@H](/C(C)=C/[C@@H]3CC[C@@H](O)[C@H](OC)C3)[C@H](C)[C@@H](O)CC1=O)[C@H](C)C[C@@H]2OC [tacrolimus]
[1]
  luminal content (spiral, transverse, and distal colon) concentrations: Significantly higher
  mean concentration of tacrolimus in the cecum tissue and the proximate colon tissue: higher
  tissue (spiral and transverse colon) concentrations: Significantly higher
[1]; po
  level of tacrolimus in tissue: No measurable level
[2]; 12 h
  Ratio Tissue(mean) (ng/g)/AUG(0-12 hr) (ng · hr/ml): 0
  Ratio Tissue(mean) (ng/g)/Trough(12 hr)(ng/ml): 0
  Trough (12 hr): 0.568 ng/mL
[2]; Trough (12 hr)
  concentration at 12 h: 0.568 ± 0.291 ng/mL

From patent publication US20240335644A1, “TREATMENT OF A DISEASE OF THE GASTROINTESTINAL TRACT WITH AN IMMUNE MODULATORY AGENT RELEASED USING AN INGESTIBLE DEVICE” (BIORA THERAPEUTICS, INC., priority 2017, published 2024)
